The text below walks through data of patent publication US20250367226A1, “ANTI-MALASSEZIA AGENT” (N.T.H Co., Ltd., priority 2024, published 2025).

Counter-ions that a name gives are not always drawn.

In the assay the test system is Malassezia globosa. The assay is described as follows: Anti-Malassezia test (viability of Malassezia, WST microbial viability assay). Particulars: for concentration required to inhibit the viability of Malassezia by 20%: 20% inhibition of viability; for viability at 10 µM / viability at 1 µM / viability at 100 µM: Malassezia globosa, 22 h, read-out: viability (%) of Malassezia, relative to negative control taken as 100; for anti-Malassezia effect compared with the positive control drugs: versus streptomycin sulfate, amorolfine hydrochloride, itraconazole. As to the method:
The Malassezia strain was cultured in CHROMagar Malassezia/Candida prepared medium (Kanto Chemical Co., Ltd.).
In 1 L of distilled water were dissolved 10 g of D-glucose, 5 g of peptone, 3 g of yeast extract, 3 g of malt extract and 0.1 g of penicillin. The resulting solution was filtered and used for the experiments.
A suspension of Malassezia was prepared to an optical density equivalent to McFarland's Standard No. 3 and 0.5 mL of the suspension was added to tubes. Each of the prepared samples, oleic acid and the YM medium were mixed into the tubes, and Malassezia was cultured at 37° C. for 22 hours. The fungi were stained using Microbial viability assay kit-WST (Dojindo Laboratories) and cultured at 37° C. for 2 hours. The absorbance was measured to calculate the viability of Malassezia. The results are expressed as a percentage (%) relative to a negative control (“control”: with no addition of test substances) taken as 100. A lower percentage indicates a stronger anti-Malassezia effect. The values obtained in the experiments were expressed as the mean±S.E. The significance of the difference in the means between the test substance administration groups and the negative control group was tested by the Dunnett's test. The significance level was set at 5% or 1%.

With `[H]/N=C(/N)N[C@H]1[C@H](O)[C@@H](O)[C@H](O[C@@H]2O[C@@H](C)[C@](O)(C=O)[C@H]2O[C@@H]2O[C@@H](CO)[C@H](O)[C@@H](O)[C@@H]2NC)[C@@H](N/C(N)=N\[H])[C@@H]1O` [streptomycin sulfate, reference compound], the “concentration required to inhibit the viability of Malassezia by 20%” value was at least 137 µM and the viability at 10 µM turned out to be 106%.

As for `CCC(C)n1ncn(-c2ccc(N3CCN(c4ccc(OCC5COC(Cn6cncn6)(c6ccc(Cl)cc6Cl)O5)cc4)CC3)cc2)c1=O` (centres unmarked) [Itraconazole, itraconazole, reference compound], the “concentration required to inhibit the viability of Malassezia by 20%” value is reported as “about 10 μM”.

For `CC(=O)c1c(O)cc(O[C@@H]2OC(CO)[C@@H](O)C(O)C2O)c(O[C@@H]2OC(CO)[C@@H](O)C(O)C2O)c1O` (some centres unmarked) [Compound 1, inermioside A], the viability at 1 µM was found to be 93.6%, the viability at 10 µM came to 81.3%, the viability at 100 µM amounted to 76.3% and the “anti-Malassezia effect compared with the positive control drugs” value is “comparable to or higher than that of the positive control drugs”.

`C[C@@H]1O[C@@H](OC[C@H]2O[C@@H](Oc3cc(O)c4c(=O)cc(-c5ccc(O)cc5)oc4c3)[C@H](O)[C@@H](O)[C@@H]2O)[C@H](O)[C@H](O)[C@H]1O` [Compound 2, apigenin 7-O-α-L-rhamnopyranosyl-(1→6)-β-D-glucopyranoside]: the viability at 1 µM stood at 83.6%, the viability at 10 µM stood at 81.4%, the viability at 100 µM is 61.5% and the “anti-Malassezia effect compared with the positive control drugs” value is “comparable to or higher than that of the positive control drugs”.
